What was measured:
[1] = target: His6-ERα298-554 D538G mutant (ERα ligand-binding domain) (Homo sapiens (Human), UniProt P03372, D538G); assay: Test A: biochemical antagonist activity, LanthaScreen TR-FRET ERα coactivator assay, D538G mutant; settings: asterisk (*): protocol using 10 nM estradiol; read-out: Antagonism D538G IC50
Summary of the method: (§1)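 TR-FRET 520:495 nm emission ratio read after overnight room-temperature incubation; IC50 derived by 4-parameter logistic fit. Mix: 0.5 nM receptor LBD, 0.5 nM Tb-His6 antibody, 250 nM PGC1a peptide, 3 nM or 10 nM estradiol, pH 7.4 phosphate buffer.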

[2] = test system: MCF7 cells (breast tumor cells) WT; assay: Test B: cell proliferation/viability assay (CellTiter-Glo) on MCF7 WT; format: cell-based; settings: Homo sapiens, MCF7, 168 h, 7 days of compound exposure
Summary of the method: (§2)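 CellTiter-Glo luminescence after 7-day exposure; % viability = background-corrected RLU of sample relative to untreated. MCF7 WT or ER Tyr 537 Ser/Asp 538 Gly mutant-dependent lines, phenol red-free MEM, 5% charcoal-stripped FBS; 3-0.000001 μM, 9 points.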

ERα in MCF7 cells = ERα in MCF7 cells (Homo sapiens (Human), UniProt P03372); assay: Test C: estrogen receptor degradation activity, ERα in cell western assay in MCF7 cells; format: cell-based; settings: for DC50: 4 hours post compound addition, ERα in cell western, read-out: Degradation IC50; for % Degradation at 3 μM: 4 hours, relative to fulvestrant
Chain of ERα in MCF7 cells (P03372 whole entry): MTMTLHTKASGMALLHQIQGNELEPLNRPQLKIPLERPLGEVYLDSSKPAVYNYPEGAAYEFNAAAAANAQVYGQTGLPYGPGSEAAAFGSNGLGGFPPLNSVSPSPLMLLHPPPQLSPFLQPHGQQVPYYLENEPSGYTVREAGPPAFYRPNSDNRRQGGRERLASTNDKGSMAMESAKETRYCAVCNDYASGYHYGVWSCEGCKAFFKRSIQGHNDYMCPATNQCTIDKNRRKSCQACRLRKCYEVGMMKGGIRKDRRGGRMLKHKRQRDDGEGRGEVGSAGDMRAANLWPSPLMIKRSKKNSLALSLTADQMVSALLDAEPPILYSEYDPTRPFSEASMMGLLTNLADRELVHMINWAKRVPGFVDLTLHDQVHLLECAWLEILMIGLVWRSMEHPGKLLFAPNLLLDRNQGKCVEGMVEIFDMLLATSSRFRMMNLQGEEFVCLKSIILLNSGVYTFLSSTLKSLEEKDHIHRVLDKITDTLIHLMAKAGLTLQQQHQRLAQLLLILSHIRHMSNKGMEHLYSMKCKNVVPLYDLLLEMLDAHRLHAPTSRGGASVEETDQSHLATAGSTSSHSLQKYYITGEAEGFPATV
Summary of the method: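 In-cell western, MCF7, 4 h compound exposure, 3–0.000018 μM final, 9 points, 1:5 steps. Formalin/Triton fix, anti-ER rabbit mAb overnight cold, Alexa 488 secondary plus 2 μM Syto-64. Green intensity = ERα, red = DNA; no-primary wells as background.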

[3] = target: His6-ERα298-554 Y537S mutant (ERα ligand-binding domain) (Homo sapiens (Human), UniProt P03372, Y537S); assay: Test A: biochemical antagonist activity, LanthaScreen TR-FRET ERα coactivator assay, Y537S mutant; settings: asterisk (*): protocol using 10 nM estradiol; read-out: Antagonism Y537S IC50
Chain of His6-ERα298-554 Y537S mutant (ERα ligand-binding domain) (P03372 298-554 Y537S): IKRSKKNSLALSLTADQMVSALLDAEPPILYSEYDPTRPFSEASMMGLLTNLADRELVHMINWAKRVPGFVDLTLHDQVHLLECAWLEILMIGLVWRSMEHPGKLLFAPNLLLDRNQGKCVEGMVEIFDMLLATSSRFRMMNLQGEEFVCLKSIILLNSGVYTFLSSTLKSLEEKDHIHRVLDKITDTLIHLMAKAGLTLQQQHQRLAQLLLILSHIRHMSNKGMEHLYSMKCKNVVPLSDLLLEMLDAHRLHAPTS
Summary of the method: as §1

[4] = test system: MCF7 cells expressing mutant estrogen receptor Tyr 537 Ser; assay: Test B: cell proliferation/viability assay (CellTiter-Glo) on MCF7 Tyr 537 Ser mutant; format: cell-based; settings: Homo sapiens, MCF7, 168 h, MCF7 cells expressing ER Tyr 537 Ser mutant, 7 days of compound exposure, read-out: proliferation MCF7 Y537S IC50
Summary of the method: as §2

[5] = test system: MCF7 cells expressing mutant estrogen receptor Asp 538 Gly; assay: Test B: cell proliferation/viability assay (CellTiter-Glo) on MCF7 Asp 538 Gly mutant; format: cell-based; settings: Homo sapiens, MCF7, 168 h, MCF7 cells expressing ER Asp 538 Gly mutant, 7 days of compound exposure, read-out: proliferation MCF7 D538G IC50
Summary of the method: as §2

[6] = target: His6-ERα298-554 WT (ERα ligand-binding domain) (Homo sapiens (Human), UniProt P03372); assay: Test A: biochemical antagonist activity, LanthaScreen TR-FRET ERα coactivator assay, WT; settings: asterisk (*): protocol using 10 nM estradiol; read-out: Antagonism WT IC50
Chain of His6-ERα298-554 WT (ERα ligand-binding domain) (P03372 298-554): as the sequence (P03372 298-554 Y537S) above, with S240Y counted along it
Summary of the method: as §1

Chain of His6-ERα298-554 D538G mutant (ERα ligand-binding domain) (P03372 298-554 D538G): as the sequence (P03372 298-554 Y537S) above, with S240Y, D241G counted along it

`C[C@@H]1Cc2cc(C3=C(c4ccc(O[C@H]5CCN(CCCF)C5)cc4)c4ccc(O)cc4SCC3)ccc2O1` [Example 202, 5-[4-[(3S)-1-(3-fluoropropyl)pyrrolidin-3-yl]oxyphenyl]-4-[(2R)-2-methyl-2,3-dihydrobenzofuran-5-yl]-2,3-dihydro-1-benzothiepin-8-ol] showed an IC50 [1] of 15 nM, an IC50 [2] of 0.4 nM and a DC50 (ERα in MCF7 cells) of 0.5 nM. For the same compound, the “% Degradation at 3 μM” value (ERα in MCF7 cells) was 89%, the IC50 [3] was 11 nM and the IC50 [4] was 6 nM. It also gave an IC50 [5] of 1 nM and an IC50 [6] of 1 nM.
For `C[C@H]1Cc2cc(C3=C(c4ccc(O[C@H]5CCN(CCCF)C5)cc4)c4ccc(O)cc4SCC3)ccc2O1` [Example 204, 5-[4-[(3S)-1-(3-fluoropropyl)pyrrolidin-3-yl]oxyphenyl]-4-[(2S)-2-methyl-2,3-dihydrobenzofuran-5-yl]-2,3-dihydro-1-benzothiepin-8-ol], the IC50 [1] was 24 nM, the IC50 [2] was 0.4 nM and the DC50 (ERα in MCF7 cells) was 0.6 nM. For the same compound, the “% Degradation at 3 μM” value (ERα in MCF7 cells) was 88%, the IC50 [3] was 15 nM and the IC50 [4] was 5 nM. It also gave an IC50 [5] of 0.8 nM and an IC50 [6] of 24 nM.
`Cc1ccc(C2=C(c3ccc(O[C@H]4CCN(CCCF)C4)nc3)c3ccc(O)cc3SCC2)c(Cl)c1` [Example 206, 4-(2-chloro-4-methyl-phenyl)-5-[6-[(3S)-1-(3-fluoropropyl)pyrrolidin-3-yl]oxy-3-pyridyl]-2,3-dihydro-1-benzothiepin-8-ol] showed an IC50 [1] of 13 nM, an IC50 [2] of 0.3 nM and a DC50 (ERα in MCF7 cells) of 0.4 nM. For the same compound, the “% Degradation at 3 μM” value (ERα in MCF7 cells) was 85%, the IC50 [3] was 9 nM and the IC50 [4] was 4 nM. For the same compound, the IC50 [5] was 0.7 nM and the IC50 [6] was 0.7 nM.
Compound `Oc1ccc2c(c1)SCCC(c1ccc(OC(F)F)c(F)c1)=C2c1ccc(O[C@H]2CCN(CCCF)C2)nc1` [Example 207, 4-[4-(difluoromethoxy)-3-fluoro-phenyl]-5-[6-[(3S)-1-(3-fluoropropyl)pyrrolidin-3-yl]oxy-3-pyridyl]-2,3-dihydro-1-benzothiepin-8-ol] has an IC50 [1] of 9 nM, an IC50 [2] of 0.1 nM and a DC50 (ERα in MCF7 cells) of 0.5 nM. For the same compound, the “% Degradation at 3 μM” value (ERα in MCF7 cells) was 85%, the IC50 [3] was 6 nM and the IC50 [4] was 2 nM. It also gave an IC50 [5] of 0.3 nM and an IC50 [6] of 2 nM.
`CCOc1ccc(C2=C(c3ccc(O[C@H]4CCN(CCCF)C4)nc3)c3ccc(O)cc3SCC2)c(F)n1` [Example 208, 4-(6-ethoxy-2-fluoro-3-pyridyl)-5-[6-[(3S)-1-(3-fluoropropyl)pyrrolidin-3-yl]oxy-3-pyridyl]-2,3-dihydro-1-benzothiepin-8-ol] showed an IC50 [1] of 7 nM, an IC50 [2] of 0.2 nM and a DC50 (ERα in MCF7 cells) of 0.4 nM. The “% Degradation at 3 μM” value (ERα in MCF7 cells) was 86%, the IC50 [3] was 5 nM and the IC50 [4] was 4 nM. For the same compound, the IC50 [5] was 0.7 nM and the IC50 [6] was 0.6 nM.
Compound `[2H]C([2H])([2H])Oc1ccc(C2=C(c3ccc(O[C@H]4CCN(CCCF)C4)cc3)c3ccc(O)cc3SCC2)c(F)c1` [Example 209, 5-[4-[(3S)-1-(3-fluoropropyl)pyrrolidin-3-yl]oxyphenyl]-4-[2-fluoro-4-(trideuteriomethoxy)phenyl]-2,3-dihydro-1-benzothiepin-8-ol] has an IC50 [1] of 35 nM, an IC50 [2] of 0.3 nM and a DC50 (ERα in MCF7 cells) of 0.4 nM. The “% Degradation at 3 μM” value (ERα in MCF7 cells) was 92%, the IC50 [3] was 20 nM and the IC50 [4] was 4 nM. The IC50 [5] was 0.7 nM and the IC50 [6] was 2 nM.
For `Cc1ccc(C2=C(c3ccc(O[C@H]4CCN(CCCF)C4)cc3)c3ccc(C(=O)O)cc3SCC2)c(F)c1` [Example 210, 4-(2-fluoro-4-methyl-phenyl)-5-[4-[(3S)-1-(3-fluoropropyl)pyrrolidin-3-yl]oxyphenyl]-2,3-dihydro-1-benzothiepine-8-carboxylic acid], the IC50 [1] was 2220 nM, the IC50 [2] was 0.8 nM and the DC50 (ERα in MCF7 cells) was 2 nM. The “% Degradation at 3 μM” value (ERα in MCF7 cells) was 89%, the IC50 [3] was 1330 nM and the IC50 [4] was 15 nM. For the same compound, the IC50 [5] was 1 nM and the IC50 [6] was 103 nM.

Source: US11149031B2, “Substituted N-(3-fluoropropyl)-pyrrolidine compounds, processes for their preparation and therapeutic uses thereof” (SANOFI, priority 2016, dated 2021)
